IC50 data for 34 compounds are collected here from patent US20100003246A1, “Novel heterocyclic compounds and uses therof” (priority 2008, published 2010).

The structures appear in SMILES notation.

T1 sequence (P15056 whole entry V600E): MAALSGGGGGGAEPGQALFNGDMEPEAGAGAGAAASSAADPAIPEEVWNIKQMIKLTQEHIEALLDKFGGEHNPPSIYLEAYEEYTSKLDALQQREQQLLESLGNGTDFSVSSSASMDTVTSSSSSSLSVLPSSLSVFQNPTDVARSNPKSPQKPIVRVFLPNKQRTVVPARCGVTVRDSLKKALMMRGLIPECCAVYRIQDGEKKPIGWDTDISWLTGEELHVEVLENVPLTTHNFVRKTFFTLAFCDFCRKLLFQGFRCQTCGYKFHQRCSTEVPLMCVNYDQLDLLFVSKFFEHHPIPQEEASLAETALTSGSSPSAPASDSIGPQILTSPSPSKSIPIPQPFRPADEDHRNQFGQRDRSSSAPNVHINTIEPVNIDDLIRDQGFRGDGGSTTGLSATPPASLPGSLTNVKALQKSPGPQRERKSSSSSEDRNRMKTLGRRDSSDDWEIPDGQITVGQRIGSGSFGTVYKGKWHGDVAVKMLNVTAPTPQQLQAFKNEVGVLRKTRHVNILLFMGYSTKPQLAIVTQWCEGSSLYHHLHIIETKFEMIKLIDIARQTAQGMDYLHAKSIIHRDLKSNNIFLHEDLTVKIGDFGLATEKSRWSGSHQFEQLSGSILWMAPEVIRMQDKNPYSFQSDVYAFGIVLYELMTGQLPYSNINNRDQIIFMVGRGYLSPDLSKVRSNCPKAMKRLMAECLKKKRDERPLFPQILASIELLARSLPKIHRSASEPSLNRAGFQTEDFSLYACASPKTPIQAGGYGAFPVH

This assay concerns the target T1, b-Raf(V600E) (Homo sapiens, UniProt P15056, V600E).
T1 construct: made in house
In words: Raf/Mek Amplified Luminescence Proximity Homogeneous Assay (Alpha Screen), b-Raf(V600E). It is filed as biochemical. The following applies: mutant b-Raf(V600E), read-out: mut-b-RAF (IC50 in uM). In short, it runs like this:
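Active b-Raf(V600E) (~4 pM) pre-incubated 60 min at room temperature with compound and kinase-dead biotinylated Mek (~10 nM) in Tris pH 7.5, MgCl2, BSA, DTT; ATP-started reaction ran 3 h, EDTA-stopped. Phospho-MEK detected by anti-p-MEK AlphaScreen luminescence; IC50 by non-linear regression.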
As to `COc1cc(-c2nc(C3(O)CCN(C)CC3)[nH]c2-c2ccncc2)cnc1N` [Compound 156, 4-(4-(6-amino-5-methoxypyridin-3-yl)-5-(pyridin-4-yl)-1H-imidazol-2-yl)-1-methylpiperidin-4-ol], the IC50 is 0.0093 µM. To `c1ccc(-c2nc(-c3ccncc3)c(-c3cnc4c(n3)CCN4)[nH]2)cc1` [Compound 59, 2-(2-phenyl-4-(pyridin-4-yl)-1H-imidazol-5-yl)-6,7-dihydro-5H-pyrrolo[3,2-b]pyrazine] belongs 0.68 µM.

On to `COc1cc(-c2[nH]c(-c3ccc(F)cc3)nc2-c2ccnc(NCC3CC3)n2)cnc1N` [Compound 183, 4-(5-(6-amino-5-methoxypyridin-3-yl)-2-(4-fluorophenyl)-1H-imidazol-4-yl)-N-(cyclopropylmethyl) pyrimidin-2-amine], for which the IC50 turned out to be 0.0007 µM. As for `COc1cc(-c2nc(-c3ccc(F)cc3)oc2-c2ccnc(NCC(C)C)n2)cnc1N` [Compound 220, 4-(4-(6-amino-5-methoxypyridin-3-yl)-2-(4-fluorophenyl)oxazol-5-yl)-N-isobutylpyrimidin-2-amine], the concentration for half-maximal inhibition (IC50) stood at 0.002 µM. To `COc1nc(-c2nc(-c3ccc(C(F)(F)F)cc3)oc2-c2ccnc(NCC(C)C)n2)cnc1N` [Compound 223, 4-(4-(5-amino-6-methoxypyrazin-2-yl)-2-(4-(trifluoromethyl)phenyl)oxazol-5-yl)-N-isobutylpyrimidin-2-amine] belongs 0.011 µM; to `Nc1ccc(-c2[nH]c(-c3ccccc3)nc2-c2ccncc2)c(F)n1` [Compound 37, 6-fluoro-5-(2-phenyl-4-(pyridin-4-yl)-1H-imidazol-5-yl)pyridin-2-amine], 0.387 µM; to `Fc1ccc(-c2nc(-c3ccncc3)c(-c3ccc4ncnn4c3)[nH]2)cc1` [Compound 130, 6-(2-(4-fluorophenyl)-4-(pyridin-4-yl)-1H-imidazol-5-yl)-[1,2,4]triazolo[1,5-a]pyridine], 0.416 µM. For `COc1cc(-c2[nH]c(-c3ccc(S(N)(=O)=O)cc3)nc2-c2ccncc2)cnc1N` [Compound 121, 4-(5-(6-amino-5-methoxypyridin-3-yl)-4-(pyridin-4-yl)-1H-imidazol-2-yl)benzenesulfonamide], the IC50 was 0.0017 µM. The figure for `COC(=O)N[C@@H](C)CNc1nccc(-c2nc(C(C)(C)C)[nH]c2-c2cnc3[nH]cc(C(F)(F)F)c3c2)n1` [Compound 263, (S)-methyl 1-(4-(2-tert-butyl-5-(3-(trifluoromethyl)-1H-pyrrolo[2,3-b]pyridin-5-yl)-1H-imidazol-4-yl)pyrimidin-2-ylamino)propan-2-ylcarbamate] is 0.065 µM; for `COc1cc(-c2[nH]c(-c3ccc(F)cc3C)nc2-c2ccncc2)cnc1N` [Compound 147, 5-(2-(4-fluoro-2-methylphenyl)-4-(pyridin-4-yl)-1H-imidazol-5-yl)-3-methoxypyridin-2-amine] it is 0.0016 µM. The figure for `c1ccc(-c2nc(-c3ccncc3)c(-c3cnc4c(c3)CCN4)[nH]2)cc1` [Compound 52, 5-(2-phenyl-4-(pyridin-4-yl)-1H-imidazol-5-yl)-2,3-dihydro-1H-pyrrolo[2,3-b]pyridine] is 0.0123 µM. In the case of `CCCNc1nccc(-c2[nH]c(C(C)(C)C)nc2-c2cnc(N)c(OC)c2)n1` [Compound 212, 4-(4-(6-amino-5-methoxypyridin-3-yl)-2-tert-butyl-1H-imidazol-5-yl)-N-propylpyrimidin-2-amine], the IC50 was 0.0001 µM. To `Fc1ccc(-c2nc(-c3ccncc3)c(-c3cnc4c(c3)OCCN4)[nH]2)cc1` [Compound 142, 7-(2-(4-fluorophenyl)-4-(pyridin-4-yl)-1H-imidazol-5-yl)-3,4-dihydro-2H-pyrido[3,2-v][1,4]oxazine] belongs 0.382 µM; to `COc1cc(-c2nc(-c3ccccc3)oc2-c2ccncc2)cnc1N` [Compound 92, 3-methoxy-5-(2-phenyl-5-(pyridin-4-yl)oxazol-4-yl)pyridin-2-amine], 0.0003 µM. To `COc1cc(-c2[nH]c(-c3cc(C(=O)N(C)C)ccc3F)nc2-c2ccncc2)cnc1N` [Compound 124, 3-(5-(6-amino-5-methoxypyridin-3-yl)-4-(pyridin-4-yl)-1H-imidazol-2-yl)-4-fluoro-N,N-dimethylbenzamide] belongs 0.0166 µM; to `COc1cc(-c2[nH]c(-c3ccc(Cl)cc3F)nc2-c2ccncc2)cnc1N` [Compound 146, 5-(2-(4-chloro-2-fluorophenyl)-4-(pyridin-4-yl)-1H-imidazol-5-yl)-3-methoxypyridin-2-amine], 0.0023 µM. For `COC(=O)N[C@@H](C)CNc1nccc(-c2[nH]c(C(C)(C)C)nc2-c2cnc(N)c(OC)n2)n1` [Example 8, (S)-methyl 1-(4-(4-(5-amino-6-methoxypyrazin-2-yl)-2-tert-butyl-1H-imidazol-5-yl)pyrimidin-2-ylamino)propan-2-ylcarbamate], the concentration for half-maximal inhibition (IC50) was determined as 0.0001 µM. The figure for `c1ccc(-c2nc(-c3ccncc3)c(-c3ccc4cnoc4c3)[nH]2)cc1` [Compound 34, 6-(2-phenyl-4-(pyridin-4-yl)-1H-imidazol-5-yl)benzo[d]isoxazole] is 0.005 µM; for `Nc1ncc(-c2[nH]c(-c3ccc(F)cc3)nc2-c2ccncc2)cc1F` [Compound 131, 3-fluoro-5-(2-(4-fluorophenyl)-4-(pyridin-4-yl)-1H-imidazol-5-yl)pyridin-2-amine] it is 0.174 µM. To `COc1cc(-c2[nH]c(-c3ccccc3)nc2-c2ccnc(N[C@@H]3CCCN(S(=O)(=O)c4ccc(Cl)cc4)C3)n2)cnc1N` [Compound 58, (R)-4-(5-(6-amino-5-methoxypyridin-3-yl)-2-phenyl-1H-imidazol-4-yl)-N-(1-(4-chlorophenylsulfonyl)piperidin-3-yl)pyrimidin-2-amine] belongs 0.0002 µM; to `COCC(=O)N[C@@H](C)CNc1nccc(-c2[nH]c(C(C)C)nc2-c2cnc(N)c(OC)c2)n1` [Compound 226, (S)-N-(1-(4-(4-(6-amino-5-methoxypyridin-3-yl)-2-isopropyl-1H-imidazol-5-yl)pyrimidin-2-ylamino)propan-2-yl)-2-methoxyacetamide], 0.0003 µM; to `COc1ccc(CNc2nccc(-c3[nH]c(C(C)(C)C)nc3-c3cnc(N)c(OC)c3)n2)cc1` [Compound 192, 4-(4-(6-amino-5-methoxypyridin-3-yl)-2-tert-butyl-1H-imidazol-5-yl)-N-(4-methoxybenzyl)pyrimidin-2-amine], 0.0002 µM. To `COc1cc(-c2nc(-c3ccc(F)cc3)[nH]c2-c2ccnc(NCC(C)C)n2)cnc1N` [Compound 159, 4-(4-(6-amino-5-methoxypyridin-3-yl)-2-(4-fluorophenyl)-1H-imidazol-5-yl)-N-isobutylpyrimidin-2-amine] belongs 0.0015 µM; to `COc1cc(-c2[nH]c(-c3ccc(C)c(F)c3)nc2-c2ccncc2)cnc1N` [Compound 117, 5-(2-(3-fluoro-4-methylphenyl)-4-(pyridin-4-yl)-1H-imidazol-5-yl)-3-methoxypyridin-2-amine], 0.0007 µM; to `COc1cc(-c2sc(-c3ccccc3)nc2-c2ccncc2)cnc1N` [Example 15, 3-methoxy-5-(2-phenyl-4-(pyridine-4-yl)thiazol-5-yl)pyridine-2-amine], 0.0019 µM. For `[2H]C([2H])([2H])Oc1nc(-c2nc(C(C)(C)C)[nH]c2-c2ccnc(NC[C@H](C)NC(=O)OC)n2)cnc1N` [Compound 261, (S)-methyl 1-(4-(4-(5-amino-6-(D3-methoxy)pyrazin-2-yl)-2-tert-butyl-1H-imidazol-5-yl)pyrimidin-2-ylamino)propan-2-ylcarbamate], the IC50 was found to be 0.0001 µM. The figure for `COc1cc(-c2[nH]c(-c3ccc(C(N)=O)cc3)nc2-c2ccncc2)cnc1N` [Compound 126, 4-(5-(6-amino-5-methoxypyridin-3-yl)-4-(pyridin-4-yl)-1H-imidazol-2-yl)benzamide] is 0.0035 µM. To `COc1cc(-c2[nH]c(-c3ccccc3)nc2-c2ccn[nH]2)cnc1N` [Compound 86, 3-methoxy-5-(2-phenyl-4-(1H-pyrazol-5-yl)-1H-imidazol-5-yl)pyridin-2-amine] belongs 0.537 µM; to `COc1ccc(-c2nc(-c3ccncc3)c(-c3cnc(N)c(OC)c3)[nH]2)cc1OC` [Compound 107, 5-(2-(3,4-dimethoxyphenyl)-4-(pyridin-4-yl)-1H-imidazol-5-yl)-3-methoxypyridin-2-amine], 0.0007 µM; to `CNc1nccc(-c2[nH]c(C(C)(C)C)nc2-c2cnc(N)c(OC)c2)n1` [Compound 210, 4-(4-(6-amino-5-methoxypyridin-3-yl)-2-tert-butyl-1H-imidazol-5-yl)-N-methylpyrimidin-2-amine], 0.0001 µM.

For `Cc1c[nH]c2ncc(-c3[nH]c(-c4ccc(F)cc4)nc3-c3ccncc3)cc12` [Compound 182, 5-(2-(4-fluorophenyl)-4-(pyridin-4-yl)-1H-imidazol-5-yl)-3-methyl-1H-pyrrolo[2,3-b]pyridine], the half-inhibitory concentration (IC50) was found to be 0.0002 µM. For the compound `COc1cc(-c2nc(C(C)(C)C)[nH]c2-c2ccnc(NC[C@H](C)NC(=O)[C@@H](C)OC)n2)cnc1N` [Compound 225, (R)-N-((S)-1-(4-(4-(6-amino-5-methoxypyridin-3-yl)-2-tert-butyl-1H-imidazol-5-yl)pyrimidin-2-ylamino)propan-2-yl)-2-methoxypropanamide], the concentration for half-maximal inhibition (IC50) came out at 0.0013 µM. The figure for `COc1nc(-c2sc(-c3ccccc3)nc2-c2ccncc2)cnc1N` [Compound 77, 3-methoxy-5-(2-phenyl-4-(pyridin-4-yl)thiazol-5-yl)pyrazin-2-amine] is 0.089 µM; for `COCC(=O)NC[C@H](C)Nc1nccc(-c2nc(C(C)(C)C)[nH]c2-c2cnc(N)c(OC)c2)n1` [Compound 204, (S)-N-(2-(4-(5-(6-amino-5-methoxypyridin-3-yl)-2-tert-butyl-1H-imidazol-4-yl)pyrimidin-2-ylamino)propyl)-2-methoxyacetamide] it is 0.0008 µM.
